Test results from the NIST ThermoML archive (doi:10.1016/j.jct.2008.10.002).

Assays:
[1] = xn = mol fraction of the nth substance listed; conditions: 101.3 kPa, Liquid, Vibrating tube method
[2] = molar heat capacity at constant pressure; xn = mol fraction of the nth substance listed; conditions: 101.3 kPa, Liquid, Small sample (50 mg) DSC
[3] = excess molar enthalpy (molar enthalpy of mixing); xn = mol fraction of the nth substance listed; conditions: 303.15 K, 101.3 kPa, Liquid

CCn1cc[n+](C)c1.O=S(=O)([O-])C(F)(F)F [1-ethyl-3-methylimidazolium trifluoromethanesulfonate] + O
Conditions	mass density, [1] [kg/m3]	molar heat capacity at constant pressure, [2] [J/K/mol]
293.15 K, x1 = 0.0186	1063.6	83.2
293.15 K, x1 = 0.0522	1142.6	94.2
293.15 K, x1 = 0.0995	1208.9	108.1
293.15 K, x1 = 0.2037	1282.4	138
293.15 K, x1 = 0.2952	1315.7	163.5
293.15 K, x1 = 0.3868	1336.6	188.5
293.15 K, x1 = 0.4761	1350.7	213.2
293.15 K, x1 = 0.5771	1362.4	240.9
293.15 K, x1 = 0.6617	1370	264
293.15 K, x1 = 0.8398	1381.8	314.4
293.15 K, x1 = 0.8646	1383.1	321.6
298.15 K, x1 = 0.0186	1061.7	83.1
298.15 K, x1 = 0.0522	1139.6	94.3
298.15 K, x1 = 0.0995	1205.3	108.6
298.15 K, x1 = 0.2037	1278.3	138.9
298.15 K, x1 = 0.2952	1311.5	164.5
298.15 K, x1 = 0.3868	1332.4	189.7
298.15 K, x1 = 0.4761	1346.4	214.5
298.15 K, x1 = 0.5771	1358.1	242.3
298.15 K, x1 = 0.6617	1365.7	265.6
298.15 K, x1 = 0.8398	1377.5	316.3
298.15 K, x1 = 0.8646	1378.8	323.5
303.15 K, x1 = 0.0186	1059.5	83.2
303.15 K, x1 = 0.0522	1136.5	94.6
303.15 K, x1 = 0.0995	1201.6	109.2
303.15 K, x1 = 0.2037	1274.2	139.9
303.15 K, x1 = 0.2952	1307.2	165.6
303.15 K, x1 = 0.3868	1328.1	190.9
303.15 K, x1 = 0.4761	1342.2	215.8
303.15 K, x1 = 0.5771	1353.9	243.8
303.15 K, x1 = 0.6617	1361.5	267.3
303.15 K, x1 = 0.8398	1373.3	318.2
303.15 K, x1 = 0.8646	1374.6	325.5
308.15 K, x1 = 0.0186	1057.2	83.1
308.15 K, x1 = 0.0522	1133.3	94.7
308.15 K, x1 = 0.0995	1197.8	109.6
308.15 K, x1 = 0.2037	1270	140.7
308.15 K, x1 = 0.2952	1303	166.6
308.15 K, x1 = 0.3868	1323.9	192.1
308.15 K, x1 = 0.4761	1337.9	217.1
308.15 K, x1 = 0.5771	1349.7	245.3
308.15 K, x1 = 0.6617	1357.3	269
308.15 K, x1 = 0.8398	1369.1	320.2
308.15 K, x1 = 0.8646	1370.4	327.5
313.15 K, x1 = 0.0186	1054.7	83.2
313.15 K, x1 = 0.0522	1130	95
313.15 K, x1 = 0.0995	1193.9	110.1
313.15 K, x1 = 0.2037	1265.8	141.5
313.15 K, x1 = 0.2952	1298.7	167.7
313.15 K, x1 = 0.3868	1319.6	193.3
313.15 K, x1 = 0.4761	1333.7	218.5
313.15 K, x1 = 0.5771	1345.4	246.9
313.15 K, x1 = 0.6617	1353.1	270.8
313.15 K, x1 = 0.8398	1364.9	322.1
313.15 K, x1 = 0.8646	1366.3	329.6
318.15 K, x1 = 0.0186	1052.1	83.4
318.15 K, x1 = 0.0522	1126.7	95.4
318.15 K, x1 = 0.0995	1190.1	110.6
318.15 K, x1 = 0.2037	1261.6	142.4
318.15 K, x1 = 0.2952	1294.4	168.8
318.15 K, x1 = 0.3868	1315.3	194.6
318.15 K, x1 = 0.4761	1329.4	220
318.15 K, x1 = 0.5771	1341.2	248.5
318.15 K, x1 = 0.6617	1348.9	272.6
318.15 K, x1 = 0.8398	1360.8	324.2
318.15 K, x1 = 0.8646	1362.1	331.7

[3]
Conditions	excess molar enthalpy [kcal/mol]
x1 = 0.1012	0.116
x1 = 0.1943	0.19
x1 = 0.2959	0.237
x1 = 0.4031	0.256
x1 = 0.4921	0.253
x1 = 0.5929	0.23
x1 = 0.6997	0.182
x1 = 0.7805	0.144
x1 = 0.844	0.107
